Source: ChEMBL document CHEMBL1201862, “PubChem BioAssay data set” (2004)
Calls of active or inactive are those of the source.

What was measured:
[1] = decrease of insulin promoter-GFP reporter – imaging, high-content screening, mouse beta cells (AID 1628); assay type: functional; details: MIN6
[2] = MIN6 cell viability loss – mouse insulinoma, cytotoxicity control, dose response (AID 2122); assay type: functional;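 also: confirmatory high-throughput counterscreen run to flag cytotoxic compounds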
Protein Wnt-3a = Protein Wnt-3a (Mus musculus, UniProt P27467); experiment: antagonism of Wnt3a pathway luciferase reporter – Wnt-LIGHT cells, luminescence, selectivity assay for Gli-SUFU antagonist project, dose response (AID 651570); assay type: functional; details: read-out: IC50_Mean;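 also: Wnt-LIGHT reporter cells stimulated with conditioned medium from Wnt3a-producing cells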
Cysteine protease ATG4B = molecular target: T1, Cysteine protease ATG4B (Homo sapiens, UniProt Q9Y4P1); assay type: functional;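 also: Fluorescence-based dose-response confirmation assay measuring inhibition of ATG4B activity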
T1 sequence (Q9Y4P1 whole entry): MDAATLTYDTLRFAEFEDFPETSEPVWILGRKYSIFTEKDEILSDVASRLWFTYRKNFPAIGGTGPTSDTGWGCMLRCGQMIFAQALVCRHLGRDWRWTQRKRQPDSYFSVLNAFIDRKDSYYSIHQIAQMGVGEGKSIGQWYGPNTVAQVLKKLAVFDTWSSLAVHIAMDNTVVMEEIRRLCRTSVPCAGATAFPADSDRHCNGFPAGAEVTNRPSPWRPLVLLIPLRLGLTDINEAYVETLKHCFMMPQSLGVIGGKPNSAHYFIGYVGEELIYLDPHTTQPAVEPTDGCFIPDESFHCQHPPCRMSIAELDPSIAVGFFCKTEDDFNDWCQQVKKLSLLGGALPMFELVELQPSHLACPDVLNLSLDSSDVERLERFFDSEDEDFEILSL

Phospholipase A2 = Phospholipase A2 (Homo sapiens, UniProt P04054); assay type: functional;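 also: confirmatory dose-response counterscreen on phospholipase A2, testing hits that came from an ultra-high-throughput screen for ATG4B inhibitors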
[3] = molecular target: T2, Corticotropin-releasing factor receptor 2/Corticotropin-releasing factor-binding protein (Homo sapiens, UniProt P24387+Q13324); experiment: activators of CRF receptor 2 with binding protein – uHTS hits, confirmation (AID 602473); assay type: functional; details: read-out: EC50_Mean
T2 sequence (Q13324 whole entry): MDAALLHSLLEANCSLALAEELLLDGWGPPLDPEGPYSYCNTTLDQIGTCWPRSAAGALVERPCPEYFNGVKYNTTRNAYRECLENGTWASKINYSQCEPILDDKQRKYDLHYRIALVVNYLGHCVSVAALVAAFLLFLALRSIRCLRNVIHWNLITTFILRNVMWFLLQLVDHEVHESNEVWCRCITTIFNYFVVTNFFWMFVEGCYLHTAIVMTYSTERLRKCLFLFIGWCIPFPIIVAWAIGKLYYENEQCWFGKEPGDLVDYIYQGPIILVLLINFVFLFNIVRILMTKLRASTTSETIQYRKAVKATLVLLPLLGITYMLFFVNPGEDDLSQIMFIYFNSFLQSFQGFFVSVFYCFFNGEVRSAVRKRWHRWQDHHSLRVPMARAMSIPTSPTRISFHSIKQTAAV
T2 sequence (P24387 whole entry): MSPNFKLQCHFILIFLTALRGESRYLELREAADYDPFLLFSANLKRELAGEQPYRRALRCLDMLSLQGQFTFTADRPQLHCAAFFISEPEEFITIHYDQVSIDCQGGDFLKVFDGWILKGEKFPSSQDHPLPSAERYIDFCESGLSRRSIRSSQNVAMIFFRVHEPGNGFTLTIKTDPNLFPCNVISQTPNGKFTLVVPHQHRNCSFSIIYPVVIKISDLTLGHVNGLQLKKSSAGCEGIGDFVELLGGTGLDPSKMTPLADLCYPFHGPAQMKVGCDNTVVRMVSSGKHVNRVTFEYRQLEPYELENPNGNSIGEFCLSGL

[4] = viability loss in HeLa cells – cytotoxicity control for MgcRacGAP inhibitor project, dose response (AID 624300); assay type: functional
[5] = molecular target: T3, Rac GTPase-activating protein 1 (Homo sapiens, UniProt Q9H0H5); experiment: blockers of MgcRacGAP-driven Rac1 GTP hydrolysis – biochemical, ADP Hunter fluorescence, primary and confirmatory, confirmation (AID 624330); assay type: functional
T3 sequence (Q9H0H5 whole entry): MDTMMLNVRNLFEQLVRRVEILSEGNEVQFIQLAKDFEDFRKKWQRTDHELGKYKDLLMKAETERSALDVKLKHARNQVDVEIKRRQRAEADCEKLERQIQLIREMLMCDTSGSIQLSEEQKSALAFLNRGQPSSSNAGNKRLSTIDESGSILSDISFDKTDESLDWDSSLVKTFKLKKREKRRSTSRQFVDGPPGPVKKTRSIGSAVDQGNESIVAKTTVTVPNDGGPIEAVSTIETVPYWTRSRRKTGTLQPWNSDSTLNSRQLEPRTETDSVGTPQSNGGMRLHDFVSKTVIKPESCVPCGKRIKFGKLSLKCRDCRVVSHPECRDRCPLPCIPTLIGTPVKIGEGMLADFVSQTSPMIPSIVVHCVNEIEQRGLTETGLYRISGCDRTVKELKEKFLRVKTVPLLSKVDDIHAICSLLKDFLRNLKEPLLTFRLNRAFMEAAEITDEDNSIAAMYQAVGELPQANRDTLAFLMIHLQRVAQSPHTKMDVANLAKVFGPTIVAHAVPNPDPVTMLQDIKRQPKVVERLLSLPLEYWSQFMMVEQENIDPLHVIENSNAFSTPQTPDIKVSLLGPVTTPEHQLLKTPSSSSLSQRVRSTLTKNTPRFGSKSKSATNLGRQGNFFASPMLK

Melanocortin receptor 4 = Melanocortin receptor 4 (Homo sapiens, UniProt P32245); assay type: functional, cell-based;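 also: Cell-based assay with luminescence read-out, confirmatory dose-response testing for agonist activity of biased ligands at MC4R; human U2OS cells with tagged receptor and beta-arrestin; potency of agonists that increase receptor coupling to beta-arrestin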
[6] = molecular target: T4, Long-chain-fatty-acid--AMP ligase FadD28 (Mycobacterium tuberculosis, UniProt P9WQ59); experiment: Fluorescence polarization aasay to screen for inhibitors that compete for the binding of FadD28 to a bisubstrate Measured in Biochemical System Using Plate Reader - 2147-01_Inhibitor_Dose_CherryPick_Activity.; assay type: functional, Mycobacterium tuberculosis H37Rv
T4 sequence (P9WQ59 whole entry): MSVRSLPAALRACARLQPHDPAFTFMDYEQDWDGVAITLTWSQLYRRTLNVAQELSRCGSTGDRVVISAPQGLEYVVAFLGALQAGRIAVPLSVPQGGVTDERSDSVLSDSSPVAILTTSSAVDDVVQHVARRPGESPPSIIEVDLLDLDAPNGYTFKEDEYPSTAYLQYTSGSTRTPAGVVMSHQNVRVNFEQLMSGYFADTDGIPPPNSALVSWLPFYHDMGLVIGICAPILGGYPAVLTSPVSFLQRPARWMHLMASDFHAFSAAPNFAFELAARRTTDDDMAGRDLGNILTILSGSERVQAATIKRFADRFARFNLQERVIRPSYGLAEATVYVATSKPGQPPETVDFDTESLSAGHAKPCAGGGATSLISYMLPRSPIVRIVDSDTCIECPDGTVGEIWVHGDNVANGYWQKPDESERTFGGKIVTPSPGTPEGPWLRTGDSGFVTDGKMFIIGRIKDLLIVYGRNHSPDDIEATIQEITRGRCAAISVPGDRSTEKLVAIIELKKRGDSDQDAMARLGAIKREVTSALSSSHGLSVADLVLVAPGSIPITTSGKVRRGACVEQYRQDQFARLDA

[7] = molecular target: 26S proteasome non-ATPase regulatory subunit 14 (Homo sapiens, UniProt O00487); experiment: inhibition of proteasome subunit RPN11 – biochemical, fluorescence polarization, uHTS hits, confirmation (AID 602368); assay type: functional
[8] = molecular target: 72 kDa type IV collagenase (Homo sapiens, UniProt P08253); experiment: Dose Response validation of uHTS RPN11 inhibitor hits using a MMP-2 Fluorescence assay.; assay type: functional
Prothrombin = Prothrombin (Bos taurus, UniProt P00735); experiment: thrombin protease inhibitors – biochemical, fluorescence polarization, uHTS hits, dose response (AID 602369); assay type: functional
[9] = P. falciparum Dd2 growth inhibitors, dose response, SYBR Green, cherry-picked samples (AID 1159567); assay type: functional, cell-based

Protein Wnt-3a, sequence (P27467 whole entry): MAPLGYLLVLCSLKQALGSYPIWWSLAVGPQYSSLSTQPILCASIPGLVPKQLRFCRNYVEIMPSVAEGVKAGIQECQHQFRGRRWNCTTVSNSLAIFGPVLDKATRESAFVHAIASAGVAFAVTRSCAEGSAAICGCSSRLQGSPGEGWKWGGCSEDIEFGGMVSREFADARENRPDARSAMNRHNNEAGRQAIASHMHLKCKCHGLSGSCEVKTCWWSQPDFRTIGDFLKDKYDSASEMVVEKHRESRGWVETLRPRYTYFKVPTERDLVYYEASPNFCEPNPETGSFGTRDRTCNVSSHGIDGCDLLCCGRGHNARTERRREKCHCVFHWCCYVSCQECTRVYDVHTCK
72 kDa type IV collagenase, sequence (P08253 whole entry): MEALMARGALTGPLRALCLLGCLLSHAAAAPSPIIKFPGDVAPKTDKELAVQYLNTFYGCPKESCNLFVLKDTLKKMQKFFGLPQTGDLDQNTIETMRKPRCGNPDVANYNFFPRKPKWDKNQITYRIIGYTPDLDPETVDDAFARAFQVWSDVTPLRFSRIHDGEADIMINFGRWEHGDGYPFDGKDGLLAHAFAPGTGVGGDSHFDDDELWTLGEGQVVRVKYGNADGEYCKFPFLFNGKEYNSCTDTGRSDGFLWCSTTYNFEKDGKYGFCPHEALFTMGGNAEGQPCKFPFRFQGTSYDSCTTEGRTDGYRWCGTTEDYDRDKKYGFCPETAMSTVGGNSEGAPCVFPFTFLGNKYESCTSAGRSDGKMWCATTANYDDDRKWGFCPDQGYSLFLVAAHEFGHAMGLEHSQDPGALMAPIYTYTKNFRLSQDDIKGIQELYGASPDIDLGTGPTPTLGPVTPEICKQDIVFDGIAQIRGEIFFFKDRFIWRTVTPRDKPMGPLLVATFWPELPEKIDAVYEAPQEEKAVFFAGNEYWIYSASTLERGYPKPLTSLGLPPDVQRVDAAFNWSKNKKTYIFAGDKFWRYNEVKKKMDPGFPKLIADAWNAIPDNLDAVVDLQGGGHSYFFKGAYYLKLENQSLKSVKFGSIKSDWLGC
Melanocortin receptor 4, sequence (P32245 whole entry): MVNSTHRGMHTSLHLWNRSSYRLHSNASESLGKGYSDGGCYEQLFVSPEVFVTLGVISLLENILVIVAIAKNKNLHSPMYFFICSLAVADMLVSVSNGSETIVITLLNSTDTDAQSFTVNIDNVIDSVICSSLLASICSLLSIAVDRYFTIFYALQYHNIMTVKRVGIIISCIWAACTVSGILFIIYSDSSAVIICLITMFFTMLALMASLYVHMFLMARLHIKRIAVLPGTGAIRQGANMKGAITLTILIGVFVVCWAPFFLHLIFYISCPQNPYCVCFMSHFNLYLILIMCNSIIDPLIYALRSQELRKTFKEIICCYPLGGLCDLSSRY
26S proteasome non-ATPase regulatory subunit 14, sequence (O00487 whole entry): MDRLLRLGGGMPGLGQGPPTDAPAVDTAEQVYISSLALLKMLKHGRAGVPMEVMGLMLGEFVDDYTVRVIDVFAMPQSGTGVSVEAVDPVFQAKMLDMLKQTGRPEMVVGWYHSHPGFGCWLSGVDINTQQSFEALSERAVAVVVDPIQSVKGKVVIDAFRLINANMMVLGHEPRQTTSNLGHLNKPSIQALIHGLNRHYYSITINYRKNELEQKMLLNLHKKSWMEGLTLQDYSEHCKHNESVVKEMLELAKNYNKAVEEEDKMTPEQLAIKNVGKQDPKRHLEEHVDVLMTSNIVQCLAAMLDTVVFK
Phospholipase A2, sequence (P04054 whole entry): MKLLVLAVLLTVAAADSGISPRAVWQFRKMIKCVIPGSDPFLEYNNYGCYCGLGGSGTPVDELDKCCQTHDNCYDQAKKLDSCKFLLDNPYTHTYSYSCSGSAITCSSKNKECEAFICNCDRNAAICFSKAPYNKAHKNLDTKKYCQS

## COCCn1c(CN2CCC(Cc3ccccc3)CC2)nc2c1c(=O)n(C)c(=O)n2C
[1]
  IC50: 0.597 µM (active)
[2]
  IC50: 0.355 µM (active)
Protein Wnt-3a
  IC50: 2.11 µM (active)

## O=C1NC(=S)S/C1=C\c1cc(Cl)cc(Cl)c1O
Cysteine protease ATG4B
  IC50: 3.47 µM (active)
Phospholipase A2
  IC50: 14.8 µM (active)
[3]
  EC50: 7.19 µM (active)
[4]
  CC50: 100 µM (active)
[5]
  IC50: 65.4 µM (active)

## N=c1c(-c2nc3ccccc3[nH]2)cc(C(=O)c2ccco2)nn1-c1ccccc1
Protein Wnt-3a
  IC50: 16.8 µM (active)

## FC(F)(F)c1cccnc1Oc1ccc(C2=NCCS2)cc1
Melanocortin receptor 4
  EC50: > 89.1 µM (inactive)

## COc1ccc(-c2nnn(CC(=O)c3c[nH]c4ccccc34)n2)cc1OC
[6]
  AC50: > 100 µM (inactive)

## Cc1cc(-c2ccccc2)cc(-c2ccccc2)[n+]1C
Protein Wnt-3a
  IC50: 5.02 µM (active)

## COc1ccc(C#Cc2ccc3c(c2)O[C@@H](CN(C)C(=O)Nc2cccc(OC)c2)[C@H](C)CN([C@@H](C)CO)S3(=O)=O)cc1
[7]
  IC50: 30.5 µM (active)
[8]
  IC50: > 100 µM (inactive)
Prothrombin
  IC50: 42.8 µM (active)
[9]
  AC50: 3.01 µM (active)
